Data published in PubChem BioAssay AID256 (DTP/NCI, 2004).
Inconclusive results and toxic doses are left out. Rule for the calls: active = survival T/C of 150% or more; inactive = T/C below 125% in these data.

System: CD2F1 mice, L1210 leukemia ip, survival T/C
Assay: NCI In Vivo Anticancer Drug Screen. Data for tumor model L1210 Leukemia (intraperitoneal) in CD2F1 (CDF1) mice
Conditions: higher = longer survival
In short: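 Each value reflects a quotient of treated over vehicle control outcomes in mice with a transplanted tumor.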

[1] = endpoint: mean survival time, dose: 100.0 mg/kg/injection, schedule: Q04DX003 (ip), vehicle: saline with Tween-80
[2] = endpoint: mean survival time, dose: 200.0 mg/kg/injection, schedule: Q04DX003 (ip), vehicle: saline with Tween-80
[3] = endpoint: mean survival time, dose: 400.0 mg/kg/injection, schedule: Q04DX003 (ip), vehicle: saline with Tween-80
[4] = endpoint: mean survival time, dose: 12.5 mg/kg/injection, schedule: Q04DX003 (ip), vehicle: saline with Tween-80
[5] = endpoint: mean survival time, dose: 25.0 mg/kg/injection, schedule: Q04DX003 (ip), vehicle: saline with Tween-80
[6] = endpoint: mean survival time, dose: 100.0 mg/kg/injection, schedule: Q01DX001 (ip), vehicle: saline with Tween-80
[7] = endpoint: mean survival time, dose: 100.0 mg/kg/injection, schedule: Q01DX009 (ip), vehicle: saline with Tween-80
[8] = endpoint: mean survival time, dose: 200.0 mg/kg/injection, schedule: Q01DX001 (ip), vehicle: saline with Tween-80
[9] = endpoint: mean survival time, dose: 200.0 mg/kg/injection, schedule: Q01DX009 (ip), vehicle: saline with Tween-80
[10] = endpoint: mean survival time, dose: 400.0 mg/kg/injection, schedule: Q01DX001 (ip), vehicle: saline with Tween-80
[11] = endpoint: mean survival time, dose: 400.0 mg/kg/injection, schedule: Q01DX009 (ip), vehicle: saline with Tween-80
[12] = endpoint: mean survival time, dose: 50.0 mg/kg/injection, schedule: Q01DX009 (ip), vehicle: saline with Tween-80
[13] = endpoint: mean survival time, dose: 25.0 mg/kg/injection, schedule: Q01DX009 (ip), vehicle: saline with Tween-80

Measured: T/C

O=P1(NCCCl)OC(c2ccccc2)=CCN1CCCl (centres undefined)
inactive: endpoint: median survival time, dose: 31.25 mg/kg/injection, schedule: Q01DX001 (ip), vehicle: distilled water + Tween-80 102 % of control | endpoint: median survival time, dose: 62.5 mg/kg/injection, schedule: Q01DX001 (ip), vehicle: distilled water + Tween-80 97 % of control | endpoint: median survival time, dose: 125.0 mg/kg/injection, schedule: Q01DX001 (ip), vehicle: distilled water + Tween-80 97 % of control | endpoint: median survival time, dose: 250.0 mg/kg/injection, schedule: Q01DX001 (ip), vehicle: distilled water + Tween-80 101 % of control | endpoint: median survival time, dose: 500.0 mg/kg/injection, schedule: Q01DX001 (ip), vehicle: distilled water + Tween-80 93 % of control

C[C@@H]1CC2=CC(=O)CC[C@]2(C)[C@H]2CC[C@]3(C)[C@@H](O)CC[C@H]3[C@H]12
inactive: [1] 98 % of control | [2] 119 % of control | [3] 98 % of control

C=C1C(=O)OC2CC3(C)CCCC(C)C34OC4C12 (centres undefined)
inactive: endpoint: mean survival time, dose: 50.0 mg/kg/injection, schedule: Q04DX002 (ip), vehicle: saline 90 % of control | endpoint: mean survival time, dose: 100.0 mg/kg/injection, schedule: Q04DX002 (ip), vehicle: saline 98 % of control | endpoint: mean survival time, dose: 200.0 mg/kg/injection, schedule: Q04DX002 (ip), vehicle: saline 114 % of control

Cc1cccnc1NC(=O)/C=C/C(=O)O
inactive: [4] 96 % of control | [5] 101 % of control | endpoint: mean survival time, dose: 50.0 mg/kg/injection, schedule: Q04DX003 (ip), vehicle: saline with Tween-80 104 % of control

CSc1nc2cc(C)c(C)cc2[nH]1
inactive: [6] 103 % of control | [7] 97 % of control | [8] 97 % of control | [9] 97 % of control | [10] 105 % of control | [11] 94 % of control

CNC(=O)Cc1ccc2cc(OC)c(OC)cc2c1
inactive: [7] 100 % of control | [9] 102 % of control

C/C(=N\N)c1ccc(Cl)cc1
inactive: [1] 103 % of control | [2] 123 % of control | [3] 109 % of control

CCCCCCCCCCCCCCCCOc1ccccc1CNc1cc(Cl)ccc1Cl
inactive: [7] 102 % of control | [1] 95 % of control | [9] 96 % of control | [2] 95 % of control | [11] 93 % of control | [3] 89 % of control

Nc1ccc2nc3c4ccccc4c(O)n3nc2c1
inactive: [7] 89 % of control | [9] 104 % of control

O[Si](O)([O][Sn]([c]1ccccc1)([c]1ccccc1)[c]1ccccc1)[O][Sn]([c]1ccccc1)([c]1ccccc1)[c]1ccccc1
inactive: endpoint: mean survival time, dose: 0.39 mg/kg/injection, schedule: Q01DX009 (ip), vehicle: saline 94 % of control | endpoint: mean survival time, dose: 0.78 mg/kg/injection, schedule: Q01DX009 (ip), vehicle: saline 94 % of control | endpoint: mean survival time, dose: 1.56 mg/kg/injection, schedule: Q01DX009 (ip), vehicle: saline 105 % of control | endpoint: mean survival time, dose: 6.25 mg/kg/injection, schedule: Q01DX009 (ip), vehicle: saline 106 % of control | endpoint: mean survival time, dose: 12.5 mg/kg/injection, schedule: Q01DX009 (ip), vehicle: saline 100 % of control

O=[N+]([O-])c1cccc(OCCCOc2ccccc2)c1
inactive: endpoint: mean survival time, dose: 100.0 mg/kg/injection, schedule: Q04DX003 (ip), vehicle: other 93 % of control | endpoint: mean survival time, dose: 200.0 mg/kg/injection, schedule: Q04DX003 (ip), vehicle: other 93 % of control | endpoint: mean survival time, dose: 400.0 mg/kg/injection, schedule: Q04DX003 (ip), vehicle: other 94 % of control

CC(=O)Nc1ncc2ccccc2c1-c1ccc(NC(=O)CCN(CCCl)CCCl)cc1
inactive: endpoint: mean survival time, dose: 6.25 mg/kg/injection, schedule: Q04DX003 (ip), vehicle: other 101 % of control | endpoint: mean survival time, dose: 12.5 mg/kg/injection, schedule: Q04DX003 (ip), vehicle: other 111 % of control | endpoint: mean survival time, dose: 25.0 mg/kg/injection, schedule: Q04DX003 (ip), vehicle: other 112 % of control

CCOC(=O)C1=C(N)CCCC1
inactive: endpoint: mean survival time, dose: 100.0 mg/kg/injection, schedule: Q01DX001 (ip), vehicle: Klucel (hydroxypropylcellulose) (HPC) 96 % of control | endpoint: mean survival time, dose: 200.0 mg/kg/injection, schedule: Q01DX001 (ip), vehicle: Klucel (hydroxypropylcellulose) (HPC) 122 % of control | endpoint: mean survival time, dose: 400.0 mg/kg/injection, schedule: Q01DX001 (ip), vehicle: Klucel (hydroxypropylcellulose) (HPC) 96 % of control

CCCCN1CCCC(O)C1 (centres undefined)
inactive: [12] 100 % of control | [7] 100 % of control | [9] 103 % of control

CCCCCCCCC[n+]1cccc(C(N)=O)c1
inactive: [13] 97 % of control | [12] 101 % of control | [7] 95 % of control

CCCCCCCCCCCCNC=O
inactive: endpoint: mean survival time, dose: 25.0 mg/kg/injection, schedule: Q01DX009 (ip), vehicle: saline 100 % of control | endpoint: mean survival time, dose: 50.0 mg/kg/injection, schedule: Q01DX009 (ip), vehicle: saline 103 % of control | endpoint: mean survival time, dose: 100.0 mg/kg/injection, schedule: Q01DX009 (ip), vehicle: saline 106 % of control

Cc1ccc([N+](=O)[O-])cc1NC(=O)Nc1ncccn1
inactive: endpoint: mean survival time, dose: 50.0 mg/kg/injection, schedule: Q01DX009 (ip), vehicle: Klucel (hydroxypropylcellulose) (HPC) 93 % of control | endpoint: mean survival time, dose: 100.0 mg/kg/injection, schedule: Q01DX009 (ip), vehicle: Klucel (hydroxypropylcellulose) (HPC) 96 % of control | endpoint: mean survival time, dose: 200.0 mg/kg/injection, schedule: Q01DX009 (ip), vehicle: Klucel (hydroxypropylcellulose) (HPC) 93 % of control

Cc1ccc(S(=O)(=O)Nc2c([N+](=O)[O-])cc([N+](=O)[O-])c3ccccc23)cc1
inactive: endpoint: mean survival time, dose: 6.25 mg/kg/injection, schedule: Q01DX009 (ip), vehicle: saline with Tween-80 104 % of control | endpoint: mean survival time, dose: 6.25 mg/kg/injection, schedule: Q04DX003 (ip), vehicle: saline with Tween-80 100 % of control | endpoint: mean survival time, dose: 12.5 mg/kg/injection, schedule: Q01DX009 (ip), vehicle: saline with Tween-80 100 % of control | [4] 96 % of control | [13] 103 % of control | [5] 100 % of control

CCOC(=O)C(C(=O)OCC)n1c(=O)c2c(ncn2C)n(C)c1=O
inactive: endpoint: mean survival time, dose: 200.0 mg/kg/injection, schedule: Q01DX005 (ip), vehicle: distilled water + Tween-80 102 % of control | endpoint: mean survival time, dose: 400.0 mg/kg/injection, schedule: Q01DX005 (ip), vehicle: distilled water + Tween-80 101 % of control

O=c1ccc2c([nH]1)CCCC2
inactive: [12] 92 % of control | [7] 103 % of control | [9] 103 % of control

COc1ccc(/C(C)=N\NC(=O)c2ccccc2)cc1
inactive: [12] 91 % of control | [7] 94 % of control | [1] 98 % of control | [9] 89 % of control | [2] 104 % of control

COc1nc(NC2OC(CO)C(O)C(O)C2O)c(C(C)=O)c(=O)n1C (centres undefined)
inactive: endpoint: median survival time, dose: 12.5 mg/kg/injection, schedule: Q01DX005 (ip), vehicle: saline with Tween-80 94 % of control | endpoint: median survival time, dose: 25.0 mg/kg/injection, schedule: Q01DX005 (ip), vehicle: saline with Tween-80 98 % of control | endpoint: median survival time, dose: 50.0 mg/kg/injection, schedule: Q01DX005 (ip), vehicle: saline with Tween-80 100 % of control | endpoint: median survival time, dose: 100.0 mg/kg/injection, schedule: Q01DX005 (ip), vehicle: saline with Tween-80 97 % of control | endpoint: median survival time, dose: 200.0 mg/kg/injection, schedule: Q01DX005 (ip), vehicle: saline with Tween-80 98 % of control

CCCCC(=O)/C=C/c1ccccc1
inactive: endpoint: mean survival time, dose: 50.0 mg/kg/injection, schedule: Q04DX002 (ip), vehicle: saline with Tween-80 97 % of control | endpoint: mean survival time, dose: 100.0 mg/kg/injection, schedule: Q04DX002 (ip), vehicle: saline with Tween-80 87 % of control | endpoint: mean survival time, dose: 200.0 mg/kg/injection, schedule: Q04DX002 (ip), vehicle: saline with Tween-80 105 % of control | endpoint: mean survival time, dose: 400.0 mg/kg/injection, schedule: Q04DX002 (ip), vehicle: saline with Tween-80 91 % of control

COc1ccc(/C=N/NC(=O)CNC(=O)Nc2cccc(C(F)(F)F)c2)cc1
inactive: [12] 92 % of control | [7] 88 % of control | [9] 92 % of control

C=C1N(c2cc3ccccc3o2)C(=O)OC12CCCCC2
inactive: [6] 101 % of control | [8] 98 % of control | [10] 91 % of control

C#CCCCOC(=O)Nc1ccccc1
inactive: endpoint: mean survival time, dose: 100.0 mg/kg/injection, schedule: Q04DX003 (ip), vehicle: Klucel (hydroxypropylcellulose) (HPC) 97 % of control | endpoint: mean survival time, dose: 200.0 mg/kg/injection, schedule: Q04DX003 (ip), vehicle: Klucel (hydroxypropylcellulose) (HPC) 95 % of control

Cc1cc2ncn(CC(=O)O)c2cc1C
inactive: [7] 98 % of control | [9] 93 % of control

Cc1cccc(N=Cc2ccccc2O)c1
inactive: [6] 88 % of control | [8] 97 % of control

O=C(O)Cc1ccc(Br)cc1[N+](=O)[O-]
inactive: endpoint: mean survival time, dose: 100.0 mg/kg/injection, schedule: Q01DX001 (ip), vehicle: other 104 % of control | endpoint: mean survival time, dose: 200.0 mg/kg/injection, schedule: Q01DX001 (ip), vehicle: other 101 % of control | endpoint: mean survival time, dose: 400.0 mg/kg/injection, schedule: Q01DX001 (ip), vehicle: other 98 % of control
